Measurements published in paper PMC2855520, “Anti-infective activity of apolipoprotein domain derived peptides in vitro: identification of novel antimicrobial peptides related to apolipoprotein B with anti-HIV activity” (BMC Immunology, 2010).
pIC50: −log10 of the molar value. Read-outs that look alike come from different tables or passages of the source. No end group written: not given here.

Assays:
HSV1 [1] = details: for IC50: read-out: IC50 Concentration (μM) HSV1, Vero cells, 90 PFU/well, peptide present 1 h, plaques counted after 2 d, averages for several experiments
[2] = tested on: Pseudomonas aeruginosa (ATCC 9027); details: for IC50: read-out: IC50 Concentration (μM) P. aeruginosa, turbidity (A620) of serial dilutions in LB broth, ~1 × 10^5 CFU, overnight 37C, averages for several experiments
Experimental: (§1) A microdilution method was used [8]: paired dilutions of compounds in LB broth, arranged in 96-well plates were inoculated with around 1 × 10^5 CFU Pseudomonas aeruginosa (ATCC 9027) or Staphylococcus aureus (ATCC 6538P). After overnight incubation at 37C, absorbance at 620 nm (A620) was assessed, and the IC50 concentrations determined.

[3] = tested on: Staphylococcus aureus (ATCC 6538P); details: for IC50: read-out: IC50 Concentration (μM) S. aureus, turbidity (A620) of serial dilutions in LB broth, ~1 × 10^5 CFU, overnight 37C, averages for several experiments
Experimental: as §1

human red blood cells [4] = tested on: human red blood cells; parameters: method as in PMID 17681018; details: cited from earlier work
TZMbl cells = assay type: cell-based
Experimental: Cytotoxicity assessment - Vero cells growing in 96-well plates were treated with various peptide concentrations. After 48 h incubation, 25 μl 3-(4,5-dimethylthiazol-2-yl)-2,5-diphenyltetrazolium bromide (MTT) in 0.5% medium was added (1 mg/ml final concentration), and cells incubated for 2 h. Growth medium was then carefully removed and formazan crystals solubilised in […] of DMSO, prior to reading absorbance at 570 nm (A570). TZMbl cytotoxicity was assessed using the WST-1 cell proliferation reagent (Roche). Experiments were performed as for the anti-infectivity assay, WST-1 was diluted 1/10 into each well at various time points and cell proliferation was measured by absorbance at 450 nm.

human red blood cells [5] = assay type: cell-based
Experimental: Freshly washed human red blood cells were added to peptides diluted in PBS in 96-well plates (20 × 10^6 red blood cells were added per well). After 2 h incubation at 37°C, plates were centrifuged (3000 g, 5 min) and 80 μl of supernatant transferred to further 96-well plates containing 0.75% ammonium hydroxide in distilled water.

HSV1 [6] = details: earlier reports, organism not specified at this place; ref [9]; cited from earlier work
Source text: In the second group of peptides, apoEdp - used as a positive control - was active against all three organisms, as found in our previous studies.

ARLAEYHAKATEHLSTLSEKAK [apoA1-H8]
IC50 (HSV1 [1]; plaque reduction assay): > 40 µM
IC50 [2]: > 54 µM
IC50 [3]: > 54 µM

CKNKEKKCCKNKEKKC [apoH(281-288)dp]
IC50 (HSV1 [1]; plaque reduction assay): > 40 µM
IC50 [2]: > 54 µM
IC50 [3]: > 54 µM

DWLKAFYDKVAEKLKEAF [apoA1-18A, reference compound]
pIC50 (HSV1 [1]; read-out: IC50 concentration against HSV1, plaque reduction assay, 95%CI 31.9 - 41.1 μM): 4.44

GERLRARMEGERLRARME [apoE(211-219)dp]
pIC50 (HSV1 [1]; 1 h): < 4.40
IC50 [2]: > 54 µM
IC50 [3]: > 54 µM

HMLDVMQDHFSRASSIIDEL [apoJ151-170]
pIC50 (HSV1 [1]; 1 h): < 4.40
IC50 [2]: > 54 µM
IC50 [3]: > 54 µM

KFMETVAEKALQEYRK [apoJ409-424]
IC50 (HSV1 [1]; plaque reduction assay): > 40 µM
IC50 [2]: > 54 µM
IC50 [3]: > 54 µM

LQVAERLTRKYNELLKSYQ [apoJ311-329]
IC50 (HSV1 [1]; plaque reduction assay): > 40 µM
IC50 [2]: > 54 µM
IC50 [3]: > 54 µM

LRKLRKRLLLRKLRKRLL-NH2 [apoE(141-149)dp, reference compound]
pIC50 (HSV1 [1]; 1 h): 4.78
pIC50 ([2]; ATCC 9027): 5.60
pIC50 ([3]; ATCC 6538): 5.05
haemolytic activity (human red blood cells [4]): non-haemolytic

LRKLRKRLLRDADDLQKRLA [apoE141-162]
pIC50 (HSV1 [1]; 1 h): < 4.40
IC50 [2]: > 54 µM
IC50 [3]: > 54 µM

NFHAMFQPFLEMIHEAQQ [apoJ219-236]
IC50 (HSV1 [1]; plaque reduction assay): > 40 µM
IC50 [2]: > 54 µM
IC50 [3]: > 54 µM

PLGEEMRDRARAHVDALRTHLA [apoA1-H6]
IC50 (HSV1 [1]; plaque reduction assay): > 40 µM
IC50 [2]: > 54 µM
IC50 [3]: > 54 µM

PVLDEFREKLNEELEALKQKMK [apoA1-consensus]
IC50 (HSV1 [1]; plaque reduction assay): > 40 µM
IC50 [2]: > 54 µM
IC50 [3]: > 54 µM

PYLDDFQKKWQEEMELYRQKVE [apoA1-H4]
IC50 (HSV1 [1]; plaque reduction assay): > 40 µM
IC50 [2]: > 54 µM
IC50 [3]: > 54 µM

PYSDELRQRLAARLEALKENGG [apoA1-H7]
IC50 (HSV1 [1]; plaque reduction assay): > 40 µM
IC50 [2]: > 54 µM
IC50 [3]: > 54 µM

RALVDTLKFVTQAEGAK [apoB1000-1016]
antiviral activity against HSV1 (in words) (HSV1 [1]; plaque reduction assay in Vero cells): inactive
IC50 (HSV1 [1]; plaque reduction assay): > 40 µM
IC50 [2]: > 54 µM
IC50 [3]: > 54 µM

RDADDLQKRRDADDLQKR [apoE(150-158)dp]
pIC50 (HSV1 [1]; 1 h): < 4.40
IC50 [2]: > 54 µM
IC50 [3]: > 54 µM

RLRARMEEMRLRARMEEM [apoE(213-221)dp]
pIC50 (HSV1 [1]; 1 h): < 4.40
IC50 [2]: > 54 µM
IC50 [3]: > 54 µM

RLTRKRGLKRLTRKRGLK [apoB(3359-3367)dp]
pIC50 (HSV1 [1]; 1 h): < 4.40
IC50 [2]: > 54 µM
IC50 [3]: > 54 µM

VTDYGKDLMEKVKEWLNS [apoAII 18-30+]
IC50 (HSV1 [1]; plaque reduction assay): > 40 µM
IC50 [2]: > 54 µM
IC50 [3]: > 54 µM

VTDYGKDLMEKVKSPELQ [apoAII 18-35]
IC50 (HSV1 [1]; plaque reduction assay): > 40 µM
IC50 [2]: > 54 µM
IC50 [3]: > 54 µM

WRWRKRWRKWRWRKRWRK [apoBdpL/R-W]
toxicity against TZMbl cells (TZMbl cells): no detectable toxicity
haemolytic activity (human red blood cells [5]): non-haemolytic

apoE(141-149): nonomer peptide of the apoE receptor binding region (LRKLRKRLL; UniProt P02649 159-167, looked up, fragment)
anti-infective activity (in words) (HSV1 [6]): inactive
